In US6831069B2, “Pyrrolo[2,3-d]pyrimidine nucleoside analogs” (priority 1999, dated 2004):

Experiments:
[1] = tested on: PMA/ionomycin stimulated T cell; assay: Extracellular cytokine levels (ELISA) in PMA/ionomycin activated human T cells, 0 or 10 μM nucleoside; type: cell-based; conditions: 48 h, 5 human donors, of activated control level
activated human T cells [2] = assay: T cell proliferation, [3H]-thymidine incorporation; type: cell-based; conditions: 48 h, read-out: peak inhibition of T cell proliferation
activated human T cells [3] = assay: MTT cell proliferation assay; type: cell-based; conditions: data not shown
PHA activated PBMC = assay: ELISA spot assay, number of cytokine producing cells; type: cell-based, human; conditions: 10 μM
[4] = tested on: BALB/c and C57BL/6 lymph node CD4+ T cells; assay: Generation of murine Th1 cells, IL-4 and IFNγ ELISA after restimulation; type: cell-based, mouse; set-up: murine IFNγ secretion upon restimulation: dose or concentration left out as unconfirmed; conditions: Th1 conditions (anti-CD3, IL-2, IFNγ, IL-12), both mouse strains
BALB/c mice = assay: Contact hypersensitivity (CHS) to DNFB; type: in vivo, mouse; conditions: for mean decrease in ear thickness (inhibition of CHS): 24 h post-challenge
Procedure: Reactivity to the contact allergen, DNFB, was determined, in BALB/c mice, as previously described (Ishii, N., K. Takahashi, H. Nakajima, S. Tanaka, P. W. Askenase. 1994. DNFB contact sensitivity (CS) in BALB/c and C3H/He mice. J. Invest. Dermatol. 102:321). Briefly, mice were sensitized by application of 20 μl of 0.3% DNFB in acetone: olive oil, 4:1 onto the shaved abdomens of naive mice. For optimal elicitation of CHS, the mice were challenged on both sides of each ear with 20 μl of 0.12% DNFB, five days after sensitization. Unsensitized mice were also challenged and used as controls in each experiment. After 24 h, ear thickness measurements were taken and response to DNFB was assessed by subtracting […]. Where indicated, 7-β-D-ribofuranosyl-4-oxopyrrolo-[2,3-d]pyrimidine-5-carboxamidine, at a dose of 6.2 μg in 50 μl PBS (0.3 mg/kg) or 12.4 μg in 100 μl PBS (0.6 mg/kg), was administered by i.p. injection at the time of challenge with DNFB. These doses of 7-β-D-ribofuranosyl-4-oxopyrrolo[2,3-d]pyrimidine-5-carboxamidine gave maximal effect in preliminary optimization studies. Following final ear thickness measurements, mice were sacrificed by cervical dislocation and axillary/lateral axillary lymph nodes were removed. Following isolation of total cellular RNA from isolated lymph node cells, RT-PCR and Southern Blot analyses were performed to monitor for mouse IFNg, IL-2, and IL-10 mRNA levels.
Total cellular RNA was extracted using Trizol reagent (Life Technologies, Gaithersburg, Md.). The cDNA synthesis reaction was performed using oligo (dT)12-18 primer and Superscript II (Life Technologies) reverse transcriptase. The PCR reaction (GeneAmp PCR kit, Perkin-Elmer, Foster City, Calif.) consisted of a 50 μl mixture containing cDNA, dNTPs (each at 200 μM), 0.5 μM of each primer pair and 1.25 unit of Taq polymerase. The primers for human IL-2, IL-10, IL-4, IL-6, IL-1b, IFNg, c-myc, IL-2R, CD40L (Stratagene, La Jolla, Calif.), iNOS (Clontech, Palo Alto, Calif.) and pHE7 ribosomal gene were used. Typical amplification conditions included a 5-minute denaturation at 94° C. and a 5 minute annealing at 60° C. followed by 35 cycles of 1.5 min at 72° C., 45 sec at 94° C. and 45 sec at 60° C., with a final extension time of 10 min at 72° C. The primers for mouse IL-2, IFNγ, and β-actin were obtained from Stratagene and mouse IL-10 from Clontech. Amplification conditions for the Stratagene mouse cytokine primers were a 5 min denaturation at 94° C. and a 5 min annealing at 60° C. followed by 35 cycles of 1.5 min at 72° C., 45 sec at 94° C. and 45 sec at 60° C., with a final extension time of 10 min at 72° C. For IL-10, the PCR conditions were a 5-minute denaturation at 94° C. followed by 35 cycles of 45 sec at 94° C., 45 sec at 60° C. and 2 min at 72° C., with a final extension time of 7 min at 72° C.
For each gene product, the optimum cDNA dilution was determined experimentally and was defined as the cDNA dilution that would achieve a detectable concentration that was well below saturating conditions. […] Equivalent loading was assessed following hybridization with a probe generated from pHE7 sense primer. Washed blots were then analyzed using a Phosphorimager (Biorad, Richmond, Calif.). Relative changes in cytokine or other test mRNA were presented as densitometric readings and normalized for any variations in input RNA by determining the densitometric ratio of mRNA of interest relative to mRNA of the housekeeping gene, pHE7.

[5] = lymph node cells, DNFB-primed mice

`N=C(N)c1cn([C@@H]2O[C@H](CO)[C@@H](O)[C@H]2O)c2nc[nH]c(=O)c12` [ICN 10776, 7-β-D-ribofuranosyl-4-oxopyrrolo-[2,3-d]pyrimidine-5-carboxamidine] was tested, and the “enhanced activated IL-4 production” value [1] was 498%±83, the “suppressed IFNγ” value [1] was 43%±4 and the inhibition at 20 µM (activated human T cells [2]) was 99%. For the same compound, the “T cell proliferation (MTT)” value (activated human T cells [3]) was “dramatically inhibited T cell proliferation”, the “number of IL-2-producing cells” value (PHA activated PBMC; 24 h) was “dramatic fall” and the “number of IFNγ-producing cells” value (PHA activated PBMC; 48 h) was “dramatic fall”. For the same compound, the “number of IL-4 producing cells” value (PHA activated PBMC; 48 h) was “substantial increase”, the “number of IL-5 producing cells” value (PHA activated PBMC; 48 h) was “substantial increase” and the “murine IL-4 secretion upon restimulation” value ([4]; co-incubation with 10 mM ICN 10776) was “elevated levels of IL-4”. For the same compound, the “murine IFNγ secretion upon restimulation” value ([4]; co-incubation with ICN 10776) was “low levels of IFNγ”, the “mean decrease in ear thickness (inhibition of CHS)” value (BALB/c mice; 0.3 mg/kg i.p. at time of challenge) was 42% and the “mean decrease in ear thickness (inhibition of CHS)” value (BALB/c mice; 0.6 mg/kg i.p. at time of challenge) was 68%. The “IFNγ mRNA levels” value (BALB/c mice; [5]) was “substantially reduced”, the “IL-2 mRNA levels” value (BALB/c mice; [5]) was “substantially reduced” and the “murine IL-10 mRNA expression” value (BALB/c mice; [5]) was “greatly enhanced”.
